Measured values published in patent publication US20240408216A1, “PROTEIN INHIBITOR OR DEGRADING AGENT, PHARMACEUTICAL COMPOSITION CONTAINING SAME AND PHARMACEUTICAL USE” (JING MEDICINE TECHNOLOGY (SHANGHAI) LTD., priority 2021, published 2024).
pIC50: −log10 of the molar value.

Assays:
A431 = experiment: Cell proliferation IC50 assay (Cell Titer GLO), A431 cells; type: cell-based; conditions: Homo sapiens, A-431; Table 6; A431, 72 h; read-out: A431 IC50
Outline: (§1)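 Each cell line, plated at 2000-4000 cells/well, received serially diluted compound for 72 h (37° C, 5% CO2) before luminescent ATP-based viability detection. IC50 values were derived from growth inhibition relative to DMSO-treated and cell-free blank wells.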

BaF3 (EGFR Del19/C797S) = molecular target: T1, BaF3 (EGFR Del19/C797S) (Homo sapiens, UniProt P00533, C797S, cells depend on it, form not given); experiment: Cell proliferation IC50 assay (Cell Titer GLO), BaF3 DC cells; type: cell-based, mouse; conditions: Table 6, 72 h
T1 construct: BaF3 (EGFR Del19/C797S)|DC|RPMI1640 + 10% FBS
T1 sequence (P00533 with tags, fused parts or gaps DEL746-750/C797S, form open): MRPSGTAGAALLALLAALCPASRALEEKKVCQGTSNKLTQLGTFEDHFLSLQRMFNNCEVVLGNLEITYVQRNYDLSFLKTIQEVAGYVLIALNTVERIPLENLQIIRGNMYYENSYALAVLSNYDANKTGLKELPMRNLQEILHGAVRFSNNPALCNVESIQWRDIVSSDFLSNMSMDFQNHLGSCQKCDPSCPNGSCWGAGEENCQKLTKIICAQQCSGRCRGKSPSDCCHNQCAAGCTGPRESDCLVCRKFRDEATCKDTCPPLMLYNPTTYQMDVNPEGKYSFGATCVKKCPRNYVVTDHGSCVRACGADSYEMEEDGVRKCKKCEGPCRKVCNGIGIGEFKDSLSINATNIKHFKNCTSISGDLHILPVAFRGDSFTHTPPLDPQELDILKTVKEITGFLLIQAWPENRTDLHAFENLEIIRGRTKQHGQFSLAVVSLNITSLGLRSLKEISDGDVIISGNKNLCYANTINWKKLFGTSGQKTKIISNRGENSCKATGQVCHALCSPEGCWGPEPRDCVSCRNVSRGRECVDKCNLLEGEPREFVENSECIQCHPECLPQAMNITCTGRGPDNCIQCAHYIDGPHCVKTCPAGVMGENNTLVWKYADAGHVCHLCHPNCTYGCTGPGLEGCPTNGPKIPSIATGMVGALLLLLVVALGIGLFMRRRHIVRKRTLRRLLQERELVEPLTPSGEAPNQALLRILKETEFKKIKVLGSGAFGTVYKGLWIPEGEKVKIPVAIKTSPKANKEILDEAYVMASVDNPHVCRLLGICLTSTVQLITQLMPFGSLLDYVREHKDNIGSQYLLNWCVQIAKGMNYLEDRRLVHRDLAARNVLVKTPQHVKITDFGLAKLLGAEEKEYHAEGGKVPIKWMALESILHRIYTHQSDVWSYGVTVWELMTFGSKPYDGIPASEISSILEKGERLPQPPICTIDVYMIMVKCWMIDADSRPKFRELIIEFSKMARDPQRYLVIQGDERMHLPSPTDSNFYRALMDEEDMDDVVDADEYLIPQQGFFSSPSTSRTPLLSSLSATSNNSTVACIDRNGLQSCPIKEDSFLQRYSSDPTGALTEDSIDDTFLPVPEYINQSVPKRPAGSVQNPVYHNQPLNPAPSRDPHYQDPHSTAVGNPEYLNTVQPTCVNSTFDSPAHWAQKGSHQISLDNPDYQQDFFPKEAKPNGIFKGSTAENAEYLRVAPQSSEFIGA
Outline: as §1

BaF3 (EGFR WT) = experiment: Cell proliferation IC50 assay (Cell Titer GLO), BaF3 WT cells; type: cell-based; conditions: Mus musculus, Ba/F3 EGFR, Table 6, 10 ng/ml EGF, 72 h
Outline: as §1

[1] = tested on: BaF3 (EGFR L858R/T790M/C797S); experiment: Cell proliferation IC50 assay (Cell Titer GLO), BaF3 LTC cells; type: cell-based; conditions: Mus musculus, Ba/F3 EGFR, Table 6, 72 h
Outline: as §1

[2] = tested on: BaF3 (EGFR Del19/T790M/C797S); experiment: Cell proliferation IC50 assay (Cell Titer GLO), BaF3 DTC cells; type: cell-based; conditions: Mus musculus, Ba/F3 EGFR-Del19/T790M/C797S, Table 6, 72 h
Procedure: IC50 of compounds in the present invention was determined by Cell Titer GLO reagent from Promega. The procedures are as follows:
Tumor cells were cultured in specified medium in an incubator at 37° C. and 5% CO2. The cells were passaged periodically. Cells at the logarithmic growth phase were collected for plating at a density of 2000-4000 cells/well. The next day, the compounds of the present invention were serially diluted and added to the cells, with DMSO being the negative control and the culture media without cells being the blank control. The plate was incubated in the incubator for 72 h. The cell viability assay was performed by adding the detection reagents to the cell culture media according to Cell Titer GLO reagent instructions and detecting luminescent signals on an EnVision microplate reader (PerkinElmer).
Inhibition of cell growth by the compounds of the present invention was plotted by Prism Graphpad software for statistically calculating the IC50 of the compound of the present invention.

Compound | pIC50 (A431) | pIC50 (BaF3 (EGFR Del19/C797S)) | pIC50 (BaF3 (EGFR WT)) | pIC50 [1] | pIC50 [2]
CCc1cc(Nc2ncc(Cl)c(Nc3ccccc3P(C)(C)=O)n2)c(OC)cc1N1CCC(N2CCN(C3(CC#Cc4cccc5c4CN(C4CCC(=O)NC4=O)C5=O)CC3)CC2)CC1 (centres unmarked) [Example E57] | < 5.40 | 7.66 | < 5.40 | 6.34 | 7.14
COc1cc(N2CCC(N3CCN(CCC#Cc4cccc5c4CN(C4CCC(=O)NC4=O)C5=O)CC3)CC2)c(C(N)=O)cc1Nc1ncc(Cl)c(Nc2ccccc2P(C)(C)=O)n1 (centres unmarked) [Example E61] | < 5.40 | 7.42 | < 5.40 | 6.21 | 6.55
CCc1cc(Nc2ncc(Cl)c(Nc3ccccc3P(C)(C)=O)n2)c(OC)cc1N1CCC(N2CCN([C@H]3C[C@@H](Oc4cc5c(cc4F)C(=O)N(C4CCC(=O)NC4=O)C5)C3)CC2)CC1 (some centres unmarked) [Example E67] | 5.60 | 8.36 | 6.51 | 7.69 | 8.39
COc1cc(N2CCC(N3CCc4cc(Oc5cccc6c5CN(C5CCC(=O)NC5=O)C6=O)ccc4C3)CC2)c(C2CC2)cc1Nc1ncc(Cl)c(Nc2ccccc2P(C)(C)=O)n1 (centres unmarked) [Example E75] | < 5.40 | 7.69 | 7.10 | 7.19 | 7.58
COc1cc2c(cc1Nc1ncc(Cl)c(Nc3ccccc3P(C)(C)=O)n1)CCN(C1CCN(CCCCOc3cccc4c3CN(C3CCC(=O)NC3=O)C4=O)CC1)C2 (centres unmarked) [Example E86] | 5.78 | 7.48 | 6.67 | 6.71 | 7.39
CCc1cc(Nc2ncc(Cl)c(Nc3ccccc3P(C)(C)=O)n2)c(OC)cc1N1CCC(N2CCN(CCCCOc3cccc4c3CN(C3CCC(=O)NC3=O)C4=O)C(=O)C2)CC1 (centres unmarked) [Example E87] | 5.42 | 8.28 | < 5.40 | 7.29 | 7.94
CCc1cc(Nc2ncc(Cl)c(Nc3ccccc3P(C)(C)=O)n2)c(OC)cc1N1CCC2(CCN(CCCCOc3ccc(NC4CCC(=O)NC4=O)cc3)CC2)CC1 (centres unmarked) [Example E89] | 5.44 | 7.10 | 5.94 | 5.98 | 7.05
COc1cc(N2CCC(N3CCN(CCC#Cc4cccc5c4CN(C4CCC(=O)NC4=O)C5=O)CC3)CC2)c(CO)cc1Nc1ncc(Cl)c(Nc2ccccc2P(C)(C)=O)n1 (centres unmarked) [Example E91] | 5.85 | 8.28 | 6.52 | 6.94 | 7.73

These reach a higher pIC50 (A431). Values come first.

pIC50 (A431) | pIC50 (BaF3 (EGFR Del19/C797S)) | pIC50 (BaF3 (EGFR WT)) | pIC50 [1] | pIC50 [2] | Compound
5.94 | 8.59 | 6.18 | 7.31 | 8.14 | CCc1cc(Nc2ncc(Cl)c(Nc3ccc(C)c(C)c3P(C)(C)=O)n2)c(OC)cc1N1CCC(N2CCN(CCCCOc3cccc4c3CN(C3CCC(=O)NC3=O)C4=O)CC2)CC1 (centres unmarked) [Example E63]
5.98 | 7.80 | 5.76 | 6.57 | 7.45 | CCc1cc(Nc2ncc(Cl)c(Nc3ccccc3P(C)(C)=O)n2)c(OC)cc1N1CCC(N2CCN(CCCCCc3ccc4c(N5CCC(=O)NC5=O)nn(C)c4c3)CC2)CC1 [Example E65]
6.08 | 7.82 | 7.12 | 7.16 | 8.01 | CCc1cc(Nc2ncc(Cl)c(Nc3ccccc3P(C)(C)=O)n2)cc(OC)c1N1CCC(N2CCN(CCC#Cc3cccc4c3CN(C3CCC(=O)NC3=O)C4=O)CC2)CC1 (centres unmarked) [Example E93]
6.19 | 7.87 | 7.17 | 7.35 | 7.79 | CCc1cc(Nc2ncc(Cl)c(Nc3ccccc3P(C)(C)=O)n2)cc(Cl)c1N1CCC(N2CCN(CCC#Cc3cccc4c3CN(C3CCC(=O)NC3=O)C4=O)CC2)CC1 (centres unmarked) [Example E77]
6.46 | 9.15 | 6.78 | 6.94 | 7.82 | CCc1cc(Nc2ncc(-c3cnn(C)c3)c(Nc3ccccc3P(C)(C)=O)n2)c(OC)cc1N1CCC(N2CCN([C@H]3C[C@@H](Oc4cccc5c4CN(C4CCC(=O)NC4=O)C5=O)C3)CC2)CC1 (some centres unmarked) [Example E69]
